How the values were obtained:
[1] = test system: White rats fed with a standard food and drink diet; test: Total blood serum cholesterol in rats on normal diet, 36-week intragastrular administration; format: in vivo, rat; details: 36 weeks
Experimental: White rats (mails) were fed with a standard food and drink diet. Experimental and control groups (7 animals in each) were formed by randomization using body mass as the principal feature. EBI was administered to the experimental animals intragastrularly as a water solution during 36 weeks. The control group received an equivalent amount of placebo. At the end of each experiment, animals were decapitated under light ether narcosis 18 hours after food withdrawal. Total cholesterol in blood serum was measured enzymatically.

[2] = test system: rats fed with high-cholesterol diet; test: Lipid metabolism and redox-vitamins in blood serum of rats under high-cholesterol diet, four-week administration; format: in vivo, rat; details: 4 weeks; for HDL / LDL / VLDL: blood serum lipoprotein fraction; for HDL / LDL / VLDL / Total cholesterol / Triglycerids / Vitamin A / Vitamin E: high-cholesterol diet; for Total cholesterol / Triglycerids / Vitamin A / Vitamin E: blood serum
Experimental: Forty white rats (mails) were divided for four groups (ten in each) by randomization using body mass as the principal feature. One group (control) was fed with a normal diet, and three others were fed with a high-cholesterol diet. The latter once received three times per week special food with the following additives: cholesterol (500 mg/kg), vitamin D3 (10000 ME/kg) and pork fat (1000 mg/kg). As a drink, these animals daily received a mixture (1:1) of glucose (5% water solution) and sodium chloride (2.5% water solution). Two groups of animals fed with the high-cholesterol diet received daily a water solution of EBI intragastrularly, and the control group received an equivalent amount of placebo. At the end of each experiment, animals were decapitated under light ether narcosis 18 hours after food withdrawal. Total cholesterol and triglycerides in blood serum were measured enzymatically. Lipoproteins were divided by electrophoresis in agar gel, then dyed with lipid-specific stuff and measured by a direct densitometry. Vitamins A and E were measured by fluorimetric analysis.

[3] = test system: Volunteers with a high level of cholesterol; test: Total cholesterol in volunteers with high cholesterol after four-week administration; format: in vivo, human
Experimental: Volunteers with a high level of cholesterol were selected for clinical study. During the experiment, each patient had their normal personal diet without any special limitations (fats, high-cholesterol food, etc.). All the patients received daily EBI (2.5 mcg) dissolved in ethanol (0.03 ml) and mixed with water (50 ml). Administering the EBI was not adjusted with the meal-receiving time.

[4] = Solubility in water; format: physicochemical
Excerpt: Compositions useful for administration of EBI can be easily prepared. The simplest way is the use of water-based solutions. […] Preferable concentrations are laying in the range of 10^−5–10^−6% that corresponds to 0.1–0.01 mcg/ml. […] Other drinkable or eatable forms and non-aqueous carriers may also be used.

[5] = test system: mice; details: acute toxicity; cited from earlier work
[6] = test system: rats; details: acute toxicity; cited from earlier work
[7] = prolonged and chronic experiments; cited from earlier work
[8] = 2 mcg/kg daily, listed as 24-epibrassinolide
[9] = 20 mcg/kg daily, listed as 24-epibrassinolide

In the case of CC(C)[C@@H](C)[C@@H](O)[C@H](O)[C@@H](C)[C@H]1CC[C@H]2[C@@H]3COC(=O)[C@H]4C[C@H](O)[C@H](O)C[C@]4(C)[C@H]3CC[C@]12C [EBI, 24-epibrassinolide], the “total blood serum cholesterol” value ([1]; 0.2 mcg/kg intragastrular) is reported as 62.17 ± 5.54 mg/deciliter, the “total blood serum cholesterol, percentage change vs control” value ([1]; 0.2 mcg/kg intragastrular) is reported as −9% and the “total blood serum cholesterol” value ([1]; 2 mcg/kg intragastrular) is reported as 57.81 ± 6.34 mg/deciliter. For the same compound, the “total blood serum cholesterol, percentage change vs control” value ([1]; 2 mcg/kg intragastrular) was −15%, the “total blood serum cholesterol” value ([1]; 20 mcg/kg intragastrular) was 54.25 ± 3.17 mg/deciliter and the “total blood serum cholesterol, percentage change vs control” value ([1]; 20 mcg/kg intragastrular) was “(−20%)”. For the same compound, the “total blood serum cholesterol” value ([1]; 200 mcg/kg intragastrular) was 51.08 ± 5.15 mg/deciliter, the “total blood serum cholesterol, percentage change vs control” value ([1]; 200 mcg/kg intragastrular) was “(−25%)” and the “lower cholesterol (lowering depending on dose)” value ([1]; normal cholesterol) was 9–25%. For the same compound, the “HDL, percentage related to the high-cholesterol diet” value (“HDL, percentage related” for short) ([2]; 2 mcg/kg daily) was −1%, the “LDL, percentage related to the high-cholesterol diet” value ([2]; 2 mcg/kg daily) was 0% and the “Total cholesterol, percentage related to the high-cholesterol diet” value ([2]; 2 mcg/kg daily) was “(−34%)”. The “Triglycerids, percentage related to the high-cholesterol diet” value ([2]; 2 mcg/kg daily) was −58%, the “VLDL, percentage related to the high-cholesterol diet” value ([2]; 2 mcg/kg daily) was “+9%” and the “Vitamin A, percentage related to the high-cholesterol diet” value (from here on “Vitamin A, percentage related”) ([2]; 2 mcg/kg daily) was 16%. The “Vitamin E, percentage related to the high-cholesterol diet” value (from here on “Vitamin E, percentage related”) ([2]; 2 mcg/kg daily) was 53%, the “reduction of plasma concentration of total cholesterol vs high-cholesterol diet without EBI” value ([2]; 2 mcg/kg daily) was 34% and the “reduction of plasma concentration of triglycerides vs high-cholesterol diet without EBI” value ([2]; 2 mcg/kg daily) was 58%. For the same compound, the “Vitamin A, percentage related” value [2, 8] was “+16%”, the “Vitamin E, percentage related” value [2, 8] was “(+53%)” and the “HDL, percentage related” value ([2]; 20 mcg/kg daily) was 47%. For the same compound, the “LDL, percentage related to the high-cholesterol diet” value ([2]; 20 mcg/kg daily) was “(−11%)”, the “Total cholesterol, percentage related to the high-cholesterol diet” value ([2]; 20 mcg/kg daily) was “(−44%)” and the “Triglycerids, percentage related to the high-cholesterol diet” value ([2]; 20 mcg/kg daily) was −68%. For the same compound, the “VLDL, percentage related to the high-cholesterol diet” value ([2]; 20 mcg/kg daily) was −11%, the “Vitamin A, percentage related” value ([2]; 20 mcg/kg daily) was 30% and the “Vitamin E, percentage related” value ([2]; 20 mcg/kg daily) was 51%. The “reduction of low-density lipoprotein vs high-cholesterol diet only” value ([2]; 20 mcg/kg daily) was 11%, the “reduction of plasma concentration of total cholesterol vs high-cholesterol diet only” value ([2]; 20 mcg/kg daily) was 44% and the “reduction of plasma concentration of triglycerides vs high-cholesterol diet only” value ([2]; 20 mcg/kg daily) was 68%. The “HDL, percentage related” value [2, 9] was “(+47%)”, the “Vitamin A, percentage related” value [2, 9] was “(+30%)” and the “Vitamin E, percentage related” value [2, 9] was “(+51%)”. For the same compound, the “decrease of VLDL level” value ([2]; 20 mcg/kg) was 11%, the HDL ([2]; 2 mcg/kg daily) was 19.45 ± 1.14% and the LDL ([2]; 2 mcg/kg daily) was 75.24 ± 1.23%. The VLDL ([2]; 2 mcg/kg daily) was 5.31 ± 0.24%, the HDL ([2]; 20 mcg/kg daily) was 28.72 ± 1.22 % and the LDL ([2]; 20 mcg/kg daily) was 66.97 ± 1.23 %. The VLDL ([2]; 20 mcg/kg daily) was 4.33 ± 0.45%, the Total cholesterol ([2]; 2 mcg/kg daily) was 64.94 ± 5.15 mg/deciliter and the Triglycerids ([2]; 2 mcg/kg daily) was 0.80 ± 0.09 mmol/L. For the same compound, the “Vitamin A” value ([2]; 2 mcg/kg daily) was 0.26 ± 0.02 mmol/L, the “Vitamin E” value ([2]; 2 mcg/kg daily) was 1.90 ± 0.14 mmol/L and the Total cholesterol ([2]; 20 mcg/kg daily) was 55.04 ± 4.36 mg/deciliter. The Triglycerids ([2]; 20 mcg/kg daily) was 0.60 ± 0.04 mmol/L, the “Vitamin A” value ([2]; 20 mcg/kg daily) was 0.29 ± 0.01 mmol/L and the “Vitamin E” value ([2]; 20 mcg/kg daily) was 1.88 ± 0.10 mmol/L. The “decrease of total cholesterol” value ([2]; doses of 2 and 20 mcg/kg) was 34–44%, the decrease of triglycerides ([2]; doses of 2 and 20 mcg/kg) was 58–68% and the “plasma total cholesterol lower than the starting level, on average” value ([3]; 6 volunteers with hypercholesterolemia, 2.5 mcg daily, 4 weeks) was 38%. The “Total Cholesterol in Plasma (after 4 weeks)” value ([3]; humans, 2.5 mcg daily oral, start 287.1 ± 38.8) was 177.8 ± 12.3 mg/deciliter, the “Percentage Change in Cholesterol” value ([3]; humans, 2.5 mcg daily, 4 weeks, vs start) was −38% and the solubility in water [4] was “relatively small”. For the same compound, the LD50 [5] was “more than 1000 mg/kg”, the LD50 [6] was “more than 2000 mg/kg” and the postponed negative effects [7] was “no postponed negative effects”.
